Data published in patent publication US5817667A, “Compounds and methods for the treatment of cancer” (University of Georgia Research Foudation, priority 1994, dated 1998).

What was measured:
SK-OV-3 = test: NCI cancer screening, growth inhibition (SRB); assay type: cell-based; settings: Homo sapiens, SK-OV-3, 48 h, read-out: Log10 GI50 (converted)
SN12C = test: NCI cancer screening, growth inhibition (SRB); assay type: cell-based; settings: Renal Cancer, 48 hours exposure
K-562 = test: NCI cancer screening, growth inhibition (SRB); assay type: cell-based; settings: Leukemia, 48 hours exposure
BSOLT-4 = test: NCI cancer screening, growth inhibition (SRB); assay type: cell-based; settings: Leukemia; 48 hours exposure
[1] = NCI cancer screening, growth inhibition (SRB); assay type: cell-based; settings: Leukemia; 48 hours exposure; read-out: Log10 GI50 (converted)
SR = test: NCI cancer screening, growth inhibition (SRB); assay type: cell-based; settings: Leukemia, 48 hours exposure
RPMI-2.26 = test: NCI cancer screening, growth inhibition (SRB); assay type: cell-based; settings: 48 h, read-out: Log10 GI50 (converted)
SP-295 = test: NCI cancer screening, growth inhibition (SRB); assay type: cell-based; settings: CNS Cancer, 48 hours exposure
MDA-N = test: NCI cancer screening, growth inhibition (SRB); assay type: cell-based; settings: Breast Cancer, 48 hours exposure
RL-60(TB) = test: NCI cancer screening, growth inhibition (SRB); assay type: cell-based; settings: Leukemia, 48 hours exposure
LOX D6VI = test: NCI cancer screening, growth inhibition (SRB); assay type: cell-based; settings: Melanoma, 48 hours exposure
mice = test: Toxicity to mice in the P388 leukemia protocol; assay type: in vivo, BDF1 mice; settings: 75 mg/kg/dose ip, twice daily for five days
Protocol: 10^6 Leukemia P388 cells were implanted ip to BDF1 mice obtained from Southern Research Institute, Alabama. L(-)-OddC was administered ip twice daily for five days starting one day after tumor cell implantation.

HOP-62 = test: NCI cancer screening, growth inhibition (SRB); assay type: cell-based; settings: Non-Small Cell Lung Cancer, 48 hours exposure
SNB-19 = test: NCI cancer screening, growth inhibition (SRB); assay type: cell-based; settings: CNS Cancer, 48 hours exposure
MDA-MB-435 = test: NCI cancer screening, growth inhibition (SRB); assay type: cell-based; settings: Homo sapiens, MDA-MB-435, 48 h, read-out: Log10 GI50 (converted)
MDA-MB-231/ATCC = test: cells; settings: Homo sapiens, MDA-MB-231, 48 h, read-out: Log10 GI50 (converted)
HS578T = test: NCI cancer screening, growth inhibition (SRB); assay type: cell-based
PC-3 = test: NCI cancer screening, growth inhibition (SRB); assay type: cell-based; settings: Prostate Cancer, 48 hours exposure
SK-MEL-5 = test: NCI cancer screening, growth inhibition (SRB); assay type: cell-based; settings: Melanoma, 48 hours exposure
RXF-393 = test: NCI cancer screening, growth inhibition (SRB); assay type: cell-based; settings: Renal Cancer, 48 hours exposure
OVCAR-4 = test: NCI cancer screening, growth inhibition (SRB); assay type: cell-based
T-47D = test: NCI cancer screening, growth inhibition (SRB); assay type: cell-based
OVCAR-8 = test: NCI cancer screening, growth inhibition (SRB); assay type: cell-based; settings: Homo sapiens, OVCAR-8, 48 h, read-out: Log10 GI50 (converted)
OROV1 = test: NCI cancer screening, growth inhibition (SRB); assay type: cell-based; settings: Ovarian Cancer; 48 hours exposure
Excerpt: PG=100×(Mean ODtest -Mean ODtzero)/(Mean ODtzero)

SK-MEL-28 = test: NCI cancer screening, growth inhibition (SRB); assay type: cell-based; settings: Melanoma, 48 hours exposure
NCI-H322M = settings: Non-Small Cell Lung Cancer; 48 hours exposure
BT-549 = test: NCI cancer screening, growth inhibition (SRB); assay type: cell-based; settings: Breast Cancer, 48 hours exposure
TK-30 = test: NCI cancer screening, growth inhibition (SRB); assay type: cell-based
A549/ATCC = test: NCI cancer screening, growth inhibition (SRB); assay type: cell-based; settings: Non-Small Cell Lung Cancer, 48 hours exposure
HCT-15 = test: NCI cancer screening, growth inhibition (SRB); assay type: cell-based; settings: Colon Cancer, 48 hours exposure
cells = settings: 48 h, read-out: Log10 GI50 (converted)
785-4 = test: NCI cancer screening, growth inhibition (SRB); assay type: cell-based; settings: Renal Cancer, 48 hours exposure
Colon 38 tumor cells = test: In vivo treatment of Colon 38 tumor cells implanted sc in BDF1 mice; settings: 25 mg/kg/dose twice daily for five days, FIG. 2
Excerpt: The graph plots tumor growth as a percentage of original tumor weight vs. days. Treatment of the mice occurred in days 1, 2, 3, 4 and 5.
Colon 38 tumor cells were implanted sc to BDF1 mice.

[2] = Non-Small Cell Lung Cancer; 48 hours exposure
[3] = read-out: Log10 GI50 (converted)
[4] = Breast Cancer, 48 hours exposure

Which results are given for `Nc1ccn([C@@H]2CO[C@H](CO)O2)c(=O)n1` [(-)-OddC, (-)-(2S,4S)-1-(2-hydroxymethyl-1,3-dioxolan-4-yl)cytosine]?
GI50 (SK-OV-3): 4.47 µM; GI50 (SN12C; Homo sapiens, SN12C, read-out: Log10 GI50 (converted)): 0.537 µM; Log10 TGI (SN12C): > -4.00; GI50 (K-562; Homo sapiens, K562, read-out: Log10 GI50 (converted)): 25.7 µM; Log10 TGI (K-562): > -4.00; Log10 TGI (BSOLT-4): -4.39; GI50 [1]: 0.219 µM; GI50 (SR; Homo sapiens, SR, read-out: Log10 GI50 (converted)): 1.12 µM; Log10 TGI (SR): > -4.00; GI50 (RPMI-2.26): 93.3 µM; Log10 TGI (SP-295): > -4.00; GI50 (SP-295; [3]): 0.575 µM; Log10 TGI (MDA-N): > -4.00; GI50 (MDA-N; Homo sapiens, MDA-N, read-out: Log10 GI50 (converted)): 46.8 µM; Log10 TGI (RL-60(TB)): > -4.00; GI50 (RL-60(TB); [3]): 0.525 µM; Log10 TGI (LOX D6VI): > -4.00; GI50 (LOX D6VI; [3]): 0.407 µM; toxicity to the mice (mice): toxic to the mice; GI50 (HOP-62; Homo sapiens, HOP-62, read-out: Log10 GI50 (converted)): 0.589 µM; Log10 TGI (HOP-62): -4.71; Log10 TGI (SNB-19): > -4.00; GI50 (SNB-19; Homo sapiens, SNB-19, read-out: Log10 GI50 (converted)): 1.95 µM; GI50 (MDA-MB-435): 24 µM; GI50 (MDA-MB-231/ATCC): > 100 µM; Log10 TGI (HS578T; [4]): > -4.00; GI50 (HS578T; Homo sapiens, Hs-578T, 48 h, read-out: Log10 GI50 (converted)): > 100 µM; GI50 (PC-3; Homo sapiens, PC-3, read-out: Log10 GI50 (converted)): 0.513 µM; Log10 TGI (PC-3): > -4.00; GI50 (SK-MEL-5; Homo sapiens, SK-MEL-5, read-out: Log10 GI50 (converted)): 12.3 µM; Log10 TGI (SK-MEL-5): > -4.00; GI50 (RXF-393; Homo sapiens, RXF 393, read-out: Log10 GI50 (converted)): 0.676 µM; Log10 TGI (RXF-393): > -4.00; GI50 (OVCAR-4; Homo sapiens, OVCAR-4, 48 h, read-out: Log10 GI50 (converted)): > 100 µM; Log10 TGI (OVCAR-4; Ovarian Cancer, 48 hours exposure): > -4.00; Log10 TGI (T-47D; [4]): > -4.00; GI50 (T-47D; Homo sapiens, T47D, 48 h, read-out: Log10 GI50 (converted)): > 100 µM; GI50 (OVCAR-8): 1.51 µM; Log10 TGI (OROV1): > -4.00; GI50 (SK-MEL-28; Homo sapiens, SK-MEL-28, read-out: Log10 GI50 (converted)): 49 µM; Log10 TGI (SK-MEL-28): > -4.00; Log10 TGI (NCI-H322M): > -4.00; Log10 TGI (BT-549): > -4.00; GI50 (BT-549; Homo sapiens, BT-549, read-out: Log10 GI50 (converted)): 25.7 µM; GI50 (TK-30; 48 h, read-out: Log10 GI50 (converted)): > 100 µM; Log10 TGI (TK-30; Renal Cancer, 48 hours exposure): > -4.00; GI50 (A549/ATCC; Homo sapiens, A549, read-out: Log10 GI50 (converted)): 0.977 µM; Log10 TGI (A549/ATCC): > -4.00; Log10 TGI (HCT-15): > -4.00; GI50 (HCT-15; Homo sapiens, HCT-15, read-out: Log10 GI50 (converted)): 4.07 µM; GI50 (cells): > 100 µM; Log10 TGI (785-4): > -4.00; GI50 (785-4; [3]): 4.37 µM; colon tumor cell growth (Colon 38 tumor cells): retarded; Log10 TGI [2]: > -4.00
